# Test results: US8796268B2, “Heteroaryls and uses thereof” (Millennium Pharmaceuticals, Inc., priority 2010, dated 2014)
# Read-outs that look alike come from different tables or passages of the source.
# Tests used:
# Assay type in all cases: biochemical
# Human PI3K delta = target: T1, Human PI3K delta (Homo sapiens, UniProt O00329); assay: Human PI3K delta enzyme assay (HTRF); settings: for inhibition at 1 µM: read-out: p110 delta Percent Inhibition
# T1 construct: His (N); host or cells: SF9 insect cells (baculovirus)
# T1 sequence (O00329 whole entry): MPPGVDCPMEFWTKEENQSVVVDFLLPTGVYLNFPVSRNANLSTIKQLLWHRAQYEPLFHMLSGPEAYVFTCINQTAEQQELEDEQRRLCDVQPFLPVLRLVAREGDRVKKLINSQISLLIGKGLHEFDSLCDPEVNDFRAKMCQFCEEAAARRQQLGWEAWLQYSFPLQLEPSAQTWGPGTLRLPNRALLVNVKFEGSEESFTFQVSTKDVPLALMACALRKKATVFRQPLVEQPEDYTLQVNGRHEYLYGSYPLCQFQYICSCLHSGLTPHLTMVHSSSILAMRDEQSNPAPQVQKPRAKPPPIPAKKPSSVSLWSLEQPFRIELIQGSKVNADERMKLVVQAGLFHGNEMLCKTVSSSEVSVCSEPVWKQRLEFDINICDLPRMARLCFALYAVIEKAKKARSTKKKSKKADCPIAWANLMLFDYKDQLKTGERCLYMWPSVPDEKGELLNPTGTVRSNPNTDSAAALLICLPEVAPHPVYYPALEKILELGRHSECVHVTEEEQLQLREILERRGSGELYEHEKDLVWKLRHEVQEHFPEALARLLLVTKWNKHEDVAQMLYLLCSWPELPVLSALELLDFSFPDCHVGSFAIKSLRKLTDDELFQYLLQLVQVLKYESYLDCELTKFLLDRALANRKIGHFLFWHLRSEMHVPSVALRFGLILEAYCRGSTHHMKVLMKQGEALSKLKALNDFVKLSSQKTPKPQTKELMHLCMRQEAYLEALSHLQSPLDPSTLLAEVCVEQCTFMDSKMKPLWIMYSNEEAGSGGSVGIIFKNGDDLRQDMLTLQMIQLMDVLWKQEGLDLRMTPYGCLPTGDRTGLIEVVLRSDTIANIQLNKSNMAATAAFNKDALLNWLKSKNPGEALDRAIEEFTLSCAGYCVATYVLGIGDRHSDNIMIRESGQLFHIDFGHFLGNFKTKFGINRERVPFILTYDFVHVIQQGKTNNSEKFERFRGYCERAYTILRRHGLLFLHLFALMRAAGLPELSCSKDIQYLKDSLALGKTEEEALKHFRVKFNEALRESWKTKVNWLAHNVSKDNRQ
# T1 sequence (P27986 whole entry partner): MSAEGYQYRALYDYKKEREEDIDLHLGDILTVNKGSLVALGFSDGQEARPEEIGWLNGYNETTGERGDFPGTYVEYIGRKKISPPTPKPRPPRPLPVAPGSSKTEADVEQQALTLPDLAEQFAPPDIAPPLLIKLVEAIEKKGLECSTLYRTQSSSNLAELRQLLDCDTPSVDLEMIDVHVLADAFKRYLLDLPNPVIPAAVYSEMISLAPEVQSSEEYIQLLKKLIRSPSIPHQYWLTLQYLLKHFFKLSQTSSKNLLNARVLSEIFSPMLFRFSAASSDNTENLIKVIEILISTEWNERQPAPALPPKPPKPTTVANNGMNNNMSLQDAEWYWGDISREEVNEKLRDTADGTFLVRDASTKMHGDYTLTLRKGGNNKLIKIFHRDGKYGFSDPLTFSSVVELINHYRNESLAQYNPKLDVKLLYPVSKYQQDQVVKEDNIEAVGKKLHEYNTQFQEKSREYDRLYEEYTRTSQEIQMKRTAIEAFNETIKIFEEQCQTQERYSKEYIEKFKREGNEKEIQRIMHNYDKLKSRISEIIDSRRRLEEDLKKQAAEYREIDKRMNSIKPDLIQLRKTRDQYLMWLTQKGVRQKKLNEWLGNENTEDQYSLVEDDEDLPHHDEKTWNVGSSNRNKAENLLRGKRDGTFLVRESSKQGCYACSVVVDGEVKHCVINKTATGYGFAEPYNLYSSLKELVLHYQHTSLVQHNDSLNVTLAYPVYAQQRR
# In short: (§1)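 Compounds were mixed with 25 uM ATP, then with 3.5 uM di-C8 PI(4,5)P2 and His-tagged PI3K isoform (β 5.25 nM, δ 0.75 nM, γ 5 nM) at pH 7.00. After 30 min at room temperature, EDTA stopped the reaction and PIP3 was measured by HTRF over 1 h.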
# Human PI3K beta = target: T2, Human PI3K beta (Homo sapiens, UniProt P42338); assay: Human PI3K beta enzyme assay (HTRF); settings: for inhibition at 1.1 µM: read-out: p110 beta Percent Inhibition
# T2 construct: His (N); host or cells: SF9 insect cells (baculovirus)
# T2 sequence (P42338 whole entry): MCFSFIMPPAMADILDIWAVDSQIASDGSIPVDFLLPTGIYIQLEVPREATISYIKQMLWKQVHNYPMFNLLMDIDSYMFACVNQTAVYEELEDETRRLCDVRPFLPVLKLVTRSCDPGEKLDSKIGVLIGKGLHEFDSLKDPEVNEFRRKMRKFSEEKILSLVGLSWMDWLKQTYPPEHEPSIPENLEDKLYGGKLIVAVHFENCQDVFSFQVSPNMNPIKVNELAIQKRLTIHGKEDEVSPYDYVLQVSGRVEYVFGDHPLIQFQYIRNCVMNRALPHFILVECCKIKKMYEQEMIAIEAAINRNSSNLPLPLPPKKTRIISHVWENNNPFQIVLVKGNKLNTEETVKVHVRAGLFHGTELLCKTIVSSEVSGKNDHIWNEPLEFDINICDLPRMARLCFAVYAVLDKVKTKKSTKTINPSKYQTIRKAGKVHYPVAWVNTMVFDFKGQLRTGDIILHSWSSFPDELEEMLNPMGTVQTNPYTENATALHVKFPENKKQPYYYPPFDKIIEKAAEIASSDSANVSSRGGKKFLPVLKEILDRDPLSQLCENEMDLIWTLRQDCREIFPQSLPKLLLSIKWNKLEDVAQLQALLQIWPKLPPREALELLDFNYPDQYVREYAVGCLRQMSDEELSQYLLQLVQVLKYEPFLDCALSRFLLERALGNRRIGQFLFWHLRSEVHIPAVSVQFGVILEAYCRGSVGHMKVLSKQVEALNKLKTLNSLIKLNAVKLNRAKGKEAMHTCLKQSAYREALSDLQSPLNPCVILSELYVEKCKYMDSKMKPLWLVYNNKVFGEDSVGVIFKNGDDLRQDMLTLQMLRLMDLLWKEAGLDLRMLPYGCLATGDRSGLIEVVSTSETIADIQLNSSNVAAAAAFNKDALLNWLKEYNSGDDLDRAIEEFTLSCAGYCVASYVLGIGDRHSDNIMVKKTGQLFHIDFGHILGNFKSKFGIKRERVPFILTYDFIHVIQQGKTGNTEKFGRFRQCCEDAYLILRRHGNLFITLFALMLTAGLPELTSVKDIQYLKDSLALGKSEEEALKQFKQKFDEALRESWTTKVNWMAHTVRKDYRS
# T2 sequence (P27986 whole entry partner): as the sequence (P27986 whole entry partner) above
# In short: as §1
# Human PI3K gamma = target: T3, Human PI3K gamma (Homo sapiens, UniProt P48736); assay: Human PI3K gamma enzyme assay (HTRF); settings: for inhibition at 1 µM: read-out: p110 gamma Percent Inhibition
# T3 construct: His (N); host or cells: SF9 insect cells (baculovirus)
# T3 sequence (P48736 whole entry): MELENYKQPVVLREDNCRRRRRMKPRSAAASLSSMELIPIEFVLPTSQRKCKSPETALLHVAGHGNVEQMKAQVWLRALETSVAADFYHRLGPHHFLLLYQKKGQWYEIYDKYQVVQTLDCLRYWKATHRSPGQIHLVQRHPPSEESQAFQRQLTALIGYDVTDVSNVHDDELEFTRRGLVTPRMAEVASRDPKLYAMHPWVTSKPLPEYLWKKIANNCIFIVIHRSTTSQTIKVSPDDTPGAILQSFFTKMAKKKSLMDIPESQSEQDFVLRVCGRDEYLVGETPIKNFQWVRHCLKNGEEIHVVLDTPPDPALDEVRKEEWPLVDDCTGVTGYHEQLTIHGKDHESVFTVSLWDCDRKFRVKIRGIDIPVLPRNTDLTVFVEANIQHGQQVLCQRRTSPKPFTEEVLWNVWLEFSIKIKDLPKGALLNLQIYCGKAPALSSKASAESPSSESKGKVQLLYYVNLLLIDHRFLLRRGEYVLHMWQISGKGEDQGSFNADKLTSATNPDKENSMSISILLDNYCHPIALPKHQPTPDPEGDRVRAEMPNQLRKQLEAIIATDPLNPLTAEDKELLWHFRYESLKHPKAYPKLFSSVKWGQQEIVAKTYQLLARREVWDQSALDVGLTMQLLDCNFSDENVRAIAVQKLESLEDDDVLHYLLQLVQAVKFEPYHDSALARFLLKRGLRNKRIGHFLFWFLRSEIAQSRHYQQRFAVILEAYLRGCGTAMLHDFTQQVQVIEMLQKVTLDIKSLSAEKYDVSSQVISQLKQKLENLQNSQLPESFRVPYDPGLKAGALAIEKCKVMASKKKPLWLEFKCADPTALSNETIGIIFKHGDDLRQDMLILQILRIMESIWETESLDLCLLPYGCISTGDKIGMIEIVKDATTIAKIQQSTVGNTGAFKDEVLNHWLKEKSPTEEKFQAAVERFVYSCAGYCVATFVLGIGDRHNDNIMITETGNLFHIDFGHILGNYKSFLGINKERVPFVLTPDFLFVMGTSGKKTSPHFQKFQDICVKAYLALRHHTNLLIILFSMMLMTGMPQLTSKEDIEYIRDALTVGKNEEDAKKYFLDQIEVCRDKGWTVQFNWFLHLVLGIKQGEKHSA
# In short: as §1
# Human PI3K alpha = target: T4, Human PI3K alpha (Homo sapiens, UniProt P42336); assay: Human PI3K alpha enzyme assay (HTRF); settings: for inhibition at 1.1 µM: read-out: p110 alpha Percent Inhibition
# T4 construct: His (N); host or cells: SF9 insect cells (baculovirus)
# T4 sequence (P42336 whole entry): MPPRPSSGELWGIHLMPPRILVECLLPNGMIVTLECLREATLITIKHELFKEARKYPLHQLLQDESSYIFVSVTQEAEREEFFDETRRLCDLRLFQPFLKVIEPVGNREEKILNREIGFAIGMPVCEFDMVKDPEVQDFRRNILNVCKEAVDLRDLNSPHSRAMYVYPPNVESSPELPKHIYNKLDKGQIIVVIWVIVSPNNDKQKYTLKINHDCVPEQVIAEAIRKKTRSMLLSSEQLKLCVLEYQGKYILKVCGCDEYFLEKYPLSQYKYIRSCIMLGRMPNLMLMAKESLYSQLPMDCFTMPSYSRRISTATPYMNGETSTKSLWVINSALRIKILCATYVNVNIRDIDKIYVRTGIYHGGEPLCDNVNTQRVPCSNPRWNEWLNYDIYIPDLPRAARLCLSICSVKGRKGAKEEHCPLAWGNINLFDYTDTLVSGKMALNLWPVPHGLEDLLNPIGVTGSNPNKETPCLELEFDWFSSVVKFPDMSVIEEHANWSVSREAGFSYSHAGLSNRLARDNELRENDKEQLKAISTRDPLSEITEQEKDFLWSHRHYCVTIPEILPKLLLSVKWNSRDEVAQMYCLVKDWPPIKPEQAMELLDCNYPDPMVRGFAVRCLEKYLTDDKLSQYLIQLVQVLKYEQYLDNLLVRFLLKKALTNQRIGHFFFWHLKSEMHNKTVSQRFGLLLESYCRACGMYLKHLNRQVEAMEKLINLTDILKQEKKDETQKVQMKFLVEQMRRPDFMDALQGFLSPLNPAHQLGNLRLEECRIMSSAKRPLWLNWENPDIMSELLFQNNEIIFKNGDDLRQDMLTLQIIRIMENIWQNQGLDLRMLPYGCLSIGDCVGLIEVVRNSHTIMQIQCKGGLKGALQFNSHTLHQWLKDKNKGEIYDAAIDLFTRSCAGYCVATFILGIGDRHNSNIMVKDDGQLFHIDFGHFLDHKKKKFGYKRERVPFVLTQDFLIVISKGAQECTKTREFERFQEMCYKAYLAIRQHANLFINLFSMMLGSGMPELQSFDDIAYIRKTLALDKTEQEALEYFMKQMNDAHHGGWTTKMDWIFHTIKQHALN
# T4 sequence (P27986 whole entry partner): as the sequence (P27986 whole entry partner) above
# [1] = concentration not given, b1389 states 1.0 μM for PI3K δ and γ
# [2] = concentration not given, b1387 states 1.1 μM for PI3K α and β
structure (smiles),measurement,setting,value
"CC(=O)Nc1cc(-c2cc([C@H](c3ccc(Cl)cc3)N(C)C)c(-c3nnc[nH]3)s2)ccn1 (single isomer, unassigned) [Compound 261]",inhibition at 1 µM,Human PI3K delta; [1],105%
same,inhibition at 1.1 µM,Human PI3K beta; [2],113%
same,inhibition at 1 µM,Human PI3K gamma; [1],33%
same,inhibition at 1.1 µM,Human PI3K alpha; [2],79%
CC(=O)Nc1cc(-c2cc(C(NCC3CCCC3)c3ccc(Cl)cc3)c(-c3nnc[nH]3)s2)ccn1 (centres unmarked) [Compound 240],inhibition at 1 µM,Human PI3K delta; [1],98%
same,inhibition at 1.1 µM,Human PI3K beta; [2],79%
same,inhibition at 1 µM,Human PI3K gamma; [1],8%
same,inhibition at 1.1 µM,Human PI3K alpha; [2],52%
Cn1c(Cc2nc(N3CCOCC3)sc2C(=O)O)cc2ccccc21 [Compound 302],inhibition at 1 µM,Human PI3K delta; [1],97%
same,inhibition at 1.1 µM,Human PI3K beta; [2],100%
same,inhibition at 1 µM,Human PI3K gamma; [1],15%
same,inhibition at 1.1 µM,Human PI3K alpha; [2],21%
"Oc1cc(-c2sc(-c3ccncc3)nc2Cc2ccc(Cl)cc2)[nH]n1 [Compound 178, 5-(4-(4-chlorobenzyl)-2-(pyridin-4-yl)thiazol-5-yl)-1H-pyrazol-3-ol]",inhibition at 1 µM,Human PI3K delta; [1],88%
same,inhibition at 1.1 µM,Human PI3K beta; [2],109%
same,inhibition at 1 µM,Human PI3K gamma; [1],38%
same,inhibition at 1.1 µM,Human PI3K alpha; [2],20%
"CC(=O)Nc1cc(-c2cc(C(c3ccc(Cl)cc3)N3CCC[C@@H]3CO)c(-c3nnc[nH]3)s2)ccn1 (single isomer, unassigned) [Compound 283]",p110 delta Percent Inhibition,Human PI3K delta; [1],99%
same,p110 beta Percent Inhibition,Human PI3K beta; [2],98%
same,p110 gamma Percent Inhibition,Human PI3K gamma; [1],18%
same,p110 alpha Percent Inhibition,Human PI3K alpha; [2],96%
OC(c1ccc(F)c(F)c1)c1cc(-c2ccncc2)sc1-c1nnc[nH]1 (centres unmarked) [Compound 199],inhibition at 1 µM,Human PI3K delta; [1],42%
same,inhibition at 1.1 µM,Human PI3K beta; [2],64%
same,inhibition at 1 µM,Human PI3K gamma; [1],16%
same,inhibition at 1.1 µM,Human PI3K alpha; [2],21%
O=C(O)c1sc(N2CCOCC2)nc1Cc1cc2ccccc2cc1F [Compound 314],inhibition at 1 µM,Human PI3K delta; [1],104%
same,inhibition at 1.1 µM,Human PI3K beta; [2],109%
same,inhibition at 1 µM,Human PI3K gamma; [1],42%
same,inhibition at 1.1 µM,Human PI3K alpha; [2],42%
"Nc1nccc(-c2sc(-c3ccncc3)nc2Cc2ccc(Cl)cc2)n1 [Compound 150, 4-(4-(4-chlorobenzyl)-2-(pyridin-4-yl)thiazol-5-yl)pyrimidin-2-amine]",inhibition at 1 µM,Human PI3K delta; [1],35%
same,inhibition at 1.1 µM,Human PI3K beta; [2],54%
same,inhibition at 1 µM,Human PI3K gamma; [1],6%
same,inhibition at 1.1 µM,Human PI3K alpha; [2],2%
CC(=O)Nc1cc(-c2sc(-c3nnc[nH]3)c(Sc3ccc(Cl)cc3)c2C#N)ccn1 [Compound 166],inhibition at 1 µM,Human PI3K delta; [1],85%
same,inhibition at 1.1 µM,Human PI3K beta; [2],82%
same,inhibition at 1 µM,Human PI3K gamma; [1],3%
same,inhibition at 1.1 µM,Human PI3K alpha; [2],92%
OC(c1ccccc1Cl)c1cc(-c2ccncc2)sc1-c1nnc[nH]1 (centres unmarked) [Compound 217],inhibition at 1 µM,Human PI3K delta; [1],60%
same,inhibition at 1.1 µM,Human PI3K beta; [2],74%
same,inhibition at 1 µM,Human PI3K gamma; [1],24%
same,inhibition at 1.1 µM,Human PI3K alpha; [2],30%
Cc1ccc(C(O)c2cc(-c3ccncc3)sc2-c2nnc[nH]2)cc1C (centres unmarked) [Compound 174],inhibition at 1 µM,Human PI3K delta; [1],59%
same,inhibition at 1.1 µM,Human PI3K beta; [2],70%
same,inhibition at 1 µM,Human PI3K gamma; [1],8%
same,inhibition at 1.1 µM,Human PI3K alpha; [2],15%
OC(c1ccc2c(c1)OC(F)(F)O2)c1cc(-c2ccncc2)sc1-c1nnc[nH]1 (centres unmarked) [Compound 134],inhibition at 1 µM,Human PI3K delta; [1],44%
same,inhibition at 1.1 µM,Human PI3K beta; [2],72%
same,inhibition at 1 µM,Human PI3K gamma; [1],8%
same,inhibition at 1.1 µM,Human PI3K alpha; [2],21%
"C=CCC(c1ccc(Cl)c(Cl)c1)c1c(C(=O)O)sc(N2CCOCC2)c1C#N (centres unmarked) [Compound 355, 4-cyano-3-[1-(3,4-dichlorophenyl)but-3-en-1-yl]-5-(morpholin-4-yl)thiophene-2-carboxylic acid]",inhibition at 1 µM,Human PI3K delta; [1],105%
same,inhibition at 1.1 µM,Human PI3K beta; [2],100%
same,inhibition at 1 µM,Human PI3K gamma; [1],53%
same,inhibition at 1.1 µM,Human PI3K alpha; [2],44%
O=C(O)c1sc(N2CCOCC2)nc1Cc1cc2cc(Br)ccc2s1 [Compound 303],inhibition at 1 µM,Human PI3K delta; [1],115%
same,inhibition at 1.1 µM,Human PI3K beta; [2],110%
same,inhibition at 1 µM,Human PI3K gamma; [1],69%
same,inhibition at 1.1 µM,Human PI3K alpha; [2],99%
COc1ccc(C(O)c2cc(-c3ccncc3)sc2-c2nnc[nH]2)cc1C (centres unmarked) [Compound 202],inhibition at 1 µM,Human PI3K delta; [1],54%
same,inhibition at 1.1 µM,Human PI3K beta; [2],80%
same,inhibition at 1 µM,Human PI3K gamma; [1],8%
same,inhibition at 1.1 µM,Human PI3K alpha; [2],12%
CC(=O)Nc1cc(-c2sc(-c3nnc[nH]3)c(C(O)c3ccc4ccccc4n3)c2C#N)ccn1 (centres unmarked) [Compound 153],inhibition at 1 µM,Human PI3K delta; [1],87%
same,inhibition at 1.1 µM,Human PI3K beta; [2],84%
same,inhibition at 1 µM,Human PI3K gamma; [1],11%
same,inhibition at 1.1 µM,Human PI3K alpha; [2],75%
CC(=O)Nc1cc(-c2cc(C(c3ccc(Cl)cc3)N3CC(O)C3)c(-c3nnc[nH]3)s2)ccn1 (centres unmarked) [Compound 201],inhibition at 1 µM,Human PI3K delta; [1],110%
same,inhibition at 1.1 µM,Human PI3K beta; [2],105%
same,inhibition at 1 µM,Human PI3K gamma; [1],37%
same,inhibition at 1.1 µM,Human PI3K alpha; [2],74%
N#Cc1c(N2CCOCC2)sc(C(=O)O)c1C(N)c1ccc(Cl)c(Cl)c1 (centres unmarked) [Compound 291],inhibition at 1 µM,Human PI3K delta; [1],105%
same,inhibition at 1.1 µM,Human PI3K beta; [2],107%
same,inhibition at 1 µM,Human PI3K gamma; [1],57%
same,inhibition at 1.1 µM,Human PI3K alpha; [2],36%
"CC(=O)Nc1cc(-c2sc(-c3nnc[nH]3)c(S(=O)(=O)c3ccc(Cl)cc3)c2C#N)ccn1 [Compound 140, N-{4-[4-[(4-chlorophenyl)sulfonyl]-3-cyano-5-(4H-1,2,4-triazol-3-yl)-2-thienyl]pyridin-2-yl}acetamide]",inhibition at 1 µM,Human PI3K delta; [1],74%
same,inhibition at 1.1 µM,Human PI3K beta; [2],47%
same,inhibition at 1 µM,Human PI3K gamma; [1],62%
same,inhibition at 1.1 µM,Human PI3K alpha; [2],76%
COC(=O)Nc1cc(-c2sc(C(=O)O)c(Cc3ccc4ccccc4c3)c2C#N)ccn1 [Compound 180],inhibition at 1 µM,Human PI3K delta; [1],102%
same,inhibition at 1.1 µM,Human PI3K beta; [2],102%
same,inhibition at 1 µM,Human PI3K gamma; [1],21%
same,inhibition at 1.1 µM,Human PI3K alpha; [2],60%
OC(c1ccc(-c2cncnc2)cc1)c1cc(-c2ccncc2)sc1-c1nnc[nH]1 (centres unmarked) [Compound 236],inhibition at 1 µM,Human PI3K delta; [1],48%
same,inhibition at 1.1 µM,Human PI3K beta; [2],53%
same,inhibition at 1 µM,Human PI3K gamma; [1],10%
same,inhibition at 1.1 µM,Human PI3K alpha; [2],11%
CC(=O)Nc1cc(-c2cc(C(c3ccc(Cl)cc3)N3CCN(C(C)=O)CC3)c(-c3nnc[nH]3)s2)ccn1 (centres unmarked) [Compound 196],inhibition at 1 µM,Human PI3K delta; [1],105%
same,inhibition at 1.1 µM,Human PI3K beta; [2],91%
same,inhibition at 1 µM,Human PI3K gamma; [1],12%
same,inhibition at 1.1 µM,Human PI3K alpha; [2],69%
"O=C(O)c1sc(N2CCOCC2)c(F)c1Cc1ccc(Cl)c(Cl)c1 [Compound 320, 3-(3,4-dichlorobenzyl)-4-fluoro-5-morpholinothiophene-2-carboxylic acid]",inhibition at 1 µM,Human PI3K delta; [1],97%
same,inhibition at 1.1 µM,Human PI3K beta; [2],94%
same,inhibition at 1 µM,Human PI3K gamma; [1],35%
same,inhibition at 1.1 µM,Human PI3K alpha; [2],16%
NC(=O)c1sc(N2CCOCC2)nc1Cc1ccc2ccccc2c1 [Compound 334],inhibition at 1 µM,Human PI3K delta; [1],101%
same,inhibition at 1.1 µM,Human PI3K beta; [2],103%
same,inhibition at 1 µM,Human PI3K gamma; [1],12%
same,inhibition at 1.1 µM,Human PI3K alpha; [2],21%
"CC(=O)Nc1cc(-c2sc(-c3nnc[nH]3)c([S+]([O-])c3ccc(Cl)cc3)c2C#N)ccn1 (centres unmarked) [Compound 131, N-{4-[4-[(4-chlorophenyl)sulfinyl]-3-cyano-5-(4H-1,2,4-triazol-3-yl)-2-thienyl]pyridin-2-yl}acetamide]",inhibition at 1 µM,Human PI3K delta; [1],80%
same,inhibition at 1.1 µM,Human PI3K beta; [2],78%
same,inhibition at 1 µM,Human PI3K gamma; [1],5%
same,inhibition at 1.1 µM,Human PI3K alpha; [2],75%
O=C(O)c1sc(N2CCOCC2)nc1Cc1ccc2cnccc2c1 [Compound 292],inhibition at 1 µM,Human PI3K delta; [1],56%
same,inhibition at 1.1 µM,Human PI3K beta; [2],82%
same,inhibition at 1 µM,Human PI3K gamma; [1],6%
same,inhibition at 1.1 µM,Human PI3K alpha; [2],4%
CC(=O)Nc1cc(-c2cc(C(c3ccc(Cl)cc3)N3CCC3)c(-c3nnc[nH]3)s2)ccn1 (centres unmarked) [Compound 151],inhibition at 1 µM,Human PI3K delta; [1],108%
same,inhibition at 1.1 µM,Human PI3K beta; [2],105%
same,inhibition at 1 µM,Human PI3K gamma; [1],17%
same,inhibition at 1.1 µM,Human PI3K alpha; [2],72%
OC(c1ccc(F)cc1F)c1cc(-c2ccncc2)sc1-c1nnc[nH]1 (centres unmarked) [Compound 162],inhibition at 1 µM,Human PI3K delta; [1],83%
same,inhibition at 1.1 µM,Human PI3K beta; [2],93%
same,inhibition at 1 µM,Human PI3K gamma; [1],33%
same,inhibition at 1.1 µM,Human PI3K alpha; [2],38%
"O=C(O)c1[se]c(N2CCOCC2)nc1Cc1ccc(Cl)cc1 [Compound 370, 4-(4-chlorobenzyl)-2-morpholino-1,3-selenazole-5-carboxylic acid]",inhibition at 1 µM,Human PI3K delta,62%
same,inhibition at 1.1 µM,Human PI3K beta,98%
same,inhibition at 1 µM,Human PI3K gamma,12%
same,inhibition at 1.1 µM,Human PI3K alpha,22%
